pIC50: −log10 of the molar value.

One may read the pIC50 as −log10 of the IC50, conventionally taken in molar units. Read a low pIC50 as a large IC50.

This experiment deals with T1, human TLR9 (Homo sapiens, UniProt Q9NR96).
T1 sequence (Q9NR96 26-1032): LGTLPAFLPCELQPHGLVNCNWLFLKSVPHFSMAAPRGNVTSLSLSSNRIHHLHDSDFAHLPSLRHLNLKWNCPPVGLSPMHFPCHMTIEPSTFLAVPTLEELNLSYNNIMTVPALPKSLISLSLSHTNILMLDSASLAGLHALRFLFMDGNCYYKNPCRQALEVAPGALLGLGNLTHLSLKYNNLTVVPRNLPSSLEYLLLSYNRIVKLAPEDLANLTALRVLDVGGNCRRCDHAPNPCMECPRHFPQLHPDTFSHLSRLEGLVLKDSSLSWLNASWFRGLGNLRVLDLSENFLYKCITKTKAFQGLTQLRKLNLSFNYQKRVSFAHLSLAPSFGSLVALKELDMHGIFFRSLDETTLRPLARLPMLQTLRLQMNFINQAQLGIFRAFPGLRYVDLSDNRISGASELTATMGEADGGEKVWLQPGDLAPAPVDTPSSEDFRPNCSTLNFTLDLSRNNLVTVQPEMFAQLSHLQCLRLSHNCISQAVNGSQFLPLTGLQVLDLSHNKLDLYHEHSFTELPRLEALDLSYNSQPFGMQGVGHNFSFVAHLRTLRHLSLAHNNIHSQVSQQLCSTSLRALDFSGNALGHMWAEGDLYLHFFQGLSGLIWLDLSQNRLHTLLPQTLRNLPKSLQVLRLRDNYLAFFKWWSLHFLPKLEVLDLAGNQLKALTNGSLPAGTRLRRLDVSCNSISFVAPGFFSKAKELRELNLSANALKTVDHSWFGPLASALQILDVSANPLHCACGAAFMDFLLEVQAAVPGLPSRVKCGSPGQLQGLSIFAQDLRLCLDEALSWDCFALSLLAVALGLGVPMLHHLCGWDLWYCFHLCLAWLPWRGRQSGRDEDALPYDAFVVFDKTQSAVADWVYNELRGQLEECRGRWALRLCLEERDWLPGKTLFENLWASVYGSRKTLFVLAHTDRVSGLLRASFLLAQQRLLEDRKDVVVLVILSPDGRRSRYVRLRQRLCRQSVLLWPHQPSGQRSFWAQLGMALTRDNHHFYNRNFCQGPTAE
Briefly: HEK293-Blue-hTLR-9 cells assay (SEAP reporter, ODN2006 stimulation). It is filed as cell-based. As to conditions: HEK293-Blue-hTLR9 cells, ODN2006 ligand, 20 hrs incubation. A digest of the protocol: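 HEK293-Blue cells stimulated with ODN2006 (10 μL of 20 uM added) plus serially diluted compound, 1% DMSO final, for 20 hrs at 37° C. SEAP in supernatant measured with QUANTI-Blue after 2 hrs at 37° C, absorbance at 620-655 nm; antagonism seen as reduced reporter signal.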
The molecule `C[C@@H]1CN(c2ccc(C#N)n3nccc23)C[C@H](CN2CC(N)C(F)(F)C2)O1` (stereo partly drawn) [Example 35, 4-[(2S,6R)-2-[(4-amino-3,3-difluoro-pyrrolidin-1-yl)methyl]-6-methyl-morpholin-4-yl]pyrazolo[1,5-a]pyridine-7-carbonitrile] gave a pIC50 of under 4.00.

Molecule `C[C@@H]1CN(c2ccc(C#N)n3nccc23)C[C@H](CN2CCCC3(CCNCC3)C2)O1` [Example 32, 4-[(2S,6R)-2-(2,9-diazaspiro[5.5]undecan-2-ylmethyl)-6-methyl-morpholin-4-yl]pyrazolo[1,5-a]pyridine-7-carbonitrile] gave a pIC50 of 7.19.

Consider `C[C@@H]1CN(c2ccc(C#N)n3nccc23)C[C@H](CN2CC3CCNCC3C2)O1` (stereo partly drawn) [Example 49, 4-[(2S,6R)-2-(1,3,3a,4,5,6,7,7a-octahydropyrrolo[3,4-c]pyridin-2-ylmethyl)-6-methyl-morpholin-4-yl]pyrazolo[1,5-a]pyridine-7-carbonitrile], for which the pIC50 was 6.92.

As to `C[C@@H]1CN(c2ccc(C#N)n3nccc23)C[C@H](CN2CCC(N)CC2)O1` [Example 17, 4-[(2S,6R)-2-[(4-amino-1-piperidyl)methyl]-6-methyl-morpholin-4-yl]pyrazolo[1,5-a]pyridine-7-carbonitrile], the pIC50 is 6.74.

With `C[C@@H]1CN(c2ccc(C#N)n3nccc23)C[C@H](CN2CC[C@H](N)[C@H](C)C2)O1` [Example 74, 4-[(2S,6R)-2-[[(3R,4S)-4-amino-3-methyl-1-piperidyl]methyl]-6-methyl-morpholin-4-yl]pyrazolo[1,5-a]pyridine-7-carbonitrile], the pIC50 was 6.66.

Regarding `CC1CNCCN1C[C@H]1CN(c2ccc(C#N)n3nccc23)C[C@@H](C)O1` (single isomer, unassigned) [Example 50B], the negative-log IC50 (pIC50) is 4.62.

These data come from patent US20220112187A1, “PYRAZOLOPYRIDINE AMINE COMPOUNDS FOR THE TREATMENT OF AUTOIMMUNE DISEASE” (Hoffmann-La Roche Inc., priority 2018, published 2022).
